Data on twelve compounds can be found in patent US9499550B2 (BRISTOL-MYERS SQUIBB COMPANY, priority 2012, dated 2016).

For experiment [1], the system named is HCV genotype 1b (Con1) replicon in HUH-7 cells. The experiment can be described thus: HCV replicon luciferase reporter assay, genotype 1b. The experiment is classed as cell-based. The settings on record: Hepatitis C virus, Huh-7, 72 h, HCV genotype 1b replicon luciferase assay, 3 days incubation, range class, read-out: LE_1b (EC50, range). The essentials: (§1)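 Replicon inhibition for both genotypes was measured as Renilla luciferase signal (EnduRen, 7.5 μM final, 2 h) after 3-day, 37° C exposure of replicon-bearing HUH-7 cells in 4% FCS DMEM, 0.5% DMSO. The 1b construct carries S1179I; the 1a H77 construct carries P1496L and S2204I. Twenty-point, 3-fold dilutions were fitted four-parametrically for EC50, and CC50 was taken from multiplexed Cell Titer-Blue.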
For orientation: In antiviral work, replicon cells carry a viral genome segment that copies itself.

Experiment [2] has as its system HCV genotype 1a (H77 strain) replicon in HUH-7 cells. The experiment is described as follows: HCV replicon luciferase reporter assay, genotype 1a. In kind it is cell-based. The note with it: Hepatitis C virus, Huh-7, 72 h, HCV genotype 1a replicon luciferase assay, 3 days incubation, range class, read-out: LE_1a (EC50, range). The essentials:
as §1

pEC50: −log10 of the molar value.

In general, pEC50 refers to −log10 of the EC50, conventionally taken in molar units.

As for `CCCOc1cc2c(Cl)cccc2c(O[C@@H]2C[C@H]3C(=O)N[C@]4(C(=O)NS(=O)(=O)C5(C)CC5)C[C@H]4/C=C\CC[C@@H](C)C[C@@H](C)[C@H](NC(=O)OC4C[C@@H]5C[C@H]5C4)C(=O)N3C2)n1` [Compound 1088, (1S,5S)-bicyclo[3.1.0]hexan-3-yl((2R,6S,7R,9R,13aS,14aR,16aS,Z)-2-((5-chloro-3-propoxyisoquinolin-1-yl)oxy)-7,9-dimethyl-14a-(((1-methylcyclopropyl)sulfonyl)carbamoyl)-5,16-dioxo-1,2,3,5,6,7,8,9,10,11,13a,14,14a,15,16,16a-hexadecahydrocyclopropa[e]pyrrolo[1,2-a][1,4]diazacyclopentadecin-6-yl)carbamate], the negative-log EC50 (pEC50) in experiment [1] and in experiment [2] was > 8.26 throughout.

`CC(C)Oc1cc2c(Cl)cccc2c(O[C@@H]2C[C@H]3C(=O)N[C@]4(C(=O)NS(=O)(=O)C5(C)CC5)C[C@H]4/C=C\CC[C@H](C)C[C@@H](C)[C@H](NC(=O)OC(C)(C)C)C(=O)N3C2)n1` [Compound 1089, tert-butyl ((2R,6S,7R,9S,13aS,14aR,16aS,Z)-2-((5-chloro-3-isopropoxyisoquinolin-1-yl)oxy)-7,9-dimethyl-14a-(((1-methylcyclopropyl)sulfonyl)carbamoyl)-5,16-dioxo-1,2,3,5,6,7,8,9,10,11,13a,14,14a,15,16,16a-hexadecahydrocyclopropa[e]pyrrolo[1,2-a][1,4]diazacyclopentadecin-6-yl)carbamate]: the pEC50 in experiment [1] is > 8.26; in experiment [2], 6.99 to 8.32.

In the case of `CC(C)Oc1cc2c(Cl)cccc2c(O[C@@H]2C[C@H]3C(=O)N[C@]4(C(=O)NS(=O)(=O)C5(C)CC5)C[C@H]4/C=C\CC[C@@H](C)C[C@@H](C)[C@H](NC(=O)OC(C)(C)C)C(=O)N3C2)n1` [Compound 1090, tert-butyl ((2R,6S,7R,9R,13aS,14aR,16aS,Z)-2-((5-chloro-3-isopropoxyisoquinolin-1-yl)oxy)-7,9-dimethyl-14a-(((1-methylcyclopropyl)sulfonyl)carbamoyl)-5,16-dioxo-1,2,3,5,6,7,8,9,10,11,13a,14,14a,15,16,16a-hexadecahydrocyclopropa[e]pyrrolo[1,2-a][1,4]diazacyclopentadecin-6-yl)carbamate], the negative logarithm of the EC50 (pEC50) in experiment [1] and in experiment [2] was > 8.26 throughout.

On to `CC(C)Oc1cc2c(Cl)cccc2c(O[C@@H]2C[C@H]3C(=O)N[C@]4(C(=O)NS(=O)(=O)C5CC5)C[C@H]4/C=C\CC[C@H](C)C[C@@H](C)[C@H](NC(=O)OC(C)(C)C)C(=O)N3C2)n1` [Compound 1091, tert-butyl ((2R,6S,7R,9S,13aS,14aR,16aS,Z)-2-((5-chloro-3-isopropoxyisoquinolin-1-yl)oxy)-14a-((cyclopropylsulfonyl)carbamoyl)-7,9-dimethyl-5,16-dioxo-1,2,3,5,6,7,8,9,10,11,13a,14,14a,15,16,16a-hexadecahydrocyclopropa[e]pyrrolo[1,2-a][1,4]diazacyclopentadecin-6-yl)carbamate], for which the pEC50 was > 8.26 in experiment [1] and 6.99 to 8.32 in experiment [2].

For the compound `CC(C)Oc1cc2c(Cl)cccc2c(O[C@@H]2C[C@H]3C(=O)N[C@]4(C(=O)NS(=O)(=O)C5CC5)C[C@H]4/C=C\CC[C@@H](C)C[C@@H](C)[C@H](NC(=O)OC(C)(C)C)C(=O)N3C2)n1` [Compound 1092, tert-butyl ((2R,6S,7R,9R,13aS,14aR,16aS,Z)-2-((5-chloro-3-isopropoxyisoquinolin-1-yl)oxy)-14a-((cyclopropylsulfonyl)carbamoyl)-7,9-dimethyl-5,16-dioxo-1,2,3,5,6,7,8,9,10,11,13a,14,14a,15,16,16a-hexadecahydrocyclopropa[e]pyrrolo[1,2-a][1,4]diazacyclopentadecin-6-yl)carbamate], the negative logarithm of the EC50 (pEC50) in experiment [1] and in experiment [2] was > 8.26 throughout.

For the compound `CC(C)Oc1cc2c(Cl)cccc2c(O[C@@H]2C[C@H]3C(=O)N[C@]4(C(=O)NS(=O)(=O)C5CC5)C[C@H]4/C=C\CC[C@H](C)C[C@@H](C)[C@H](NC(=O)OC(C)(C)C(F)(F)F)C(=O)N3C2)n1` [Compound 1093, 1,1,1-trifluoro-2-methylpropan-2-yl((2R,6S,7R,9S,13aS,14aR,16aS,Z)-2-((5-chloro-3-isopropoxyisoquinolin-1-yl)oxy)-14a-((cyclopropylsulfonyl)carbamoyl)-7,9-dimethyl-5,16-dioxo-1,2,3,5,6,7,8,9,10,11,13a,14,14a,15,16,16a-hexadecahydrocyclopropa[e]pyrrolo[1,2-a][1,4]diazacyclopentadecin-6-yl)carbamate], the pEC50 in experiment [1] is > 8.26; in experiment [2], 6.99 to 8.32.

Consider `CC(C)Oc1cc2c(Cl)cccc2c(O[C@@H]2C[C@H]3C(=O)N[C@]4(C(=O)NS(=O)(=O)C5CC5)C[C@H]4/C=C\CC[C@@H](C)C[C@@H](C)[C@H](NC(=O)OC(C)(C)C(F)(F)F)C(=O)N3C2)n1` [Compound 1094, 1,1,1-trifluoro-2-methylpropan-2-yl((2R,6S,7R,9R,13aS,14aR,16aS,Z)-2-((5-chloro-3-isopropoxyisoquinolin-1-yl)oxy)-14a-((cyclopropylsulfonyl)carbamoyl)-7,9-dimethyl-5,16-dioxo-1,2,3,5,6,7,8,9,10,11,13a,14,14a,15,16,16a-hexadecahydrocyclopropa[e]pyrrolo[1,2-a][1,4]diazacyclopentadecin-6-yl)carbamate], for which the negative-log EC50 (pEC50) in experiment [1] and in experiment [2] was > 8.26 throughout.

With `C[C@H]1CC/C=C\[C@@H]2C[C@@]2(C(=O)NS(=O)(=O)C2CC2)NC(=O)[C@@H]2C[C@@H](Oc3nc(OCC(F)F)cc4c(Cl)cccc34)CN2C(=O)[C@@H](NC(=O)OC(C)(C)C(F)(F)F)[C@H](C)C1` [Compound 1095, 1,1,1-trifluoro-2-methylpropan-2-yl((2R,6S,7R,9S,13aS,14aR,16aS,Z)-2-((5-chloro-3-(2,2-difluoroethoxyl)isoquinolin-1-yl)oxy)-14a-((cyclopropylsulfonyl)carbamoyl)-7,9-dimethyl-5,16-dioxo-1,2,3,5,6,7,8,9,10,11,13a,14,14a,15,16,16a-hexadecahydrocyclopropa[e]pyrrolo[1,2-a][1,4]diazacyclopentadecin-6-yl)carbamate], the negative-log EC50 (pEC50) is > 8.26 in experiment [1] and 6.99 to 8.32 in experiment [2].

As for `C[C@@H]1CC/C=C\[C@@H]2C[C@@]2(C(=O)NS(=O)(=O)C2CC2)NC(=O)[C@@H]2C[C@@H](Oc3nc(OCC(F)F)cc4c(Cl)cccc34)CN2C(=O)[C@@H](NC(=O)OC(C)(C)C(F)(F)F)[C@H](C)C1` [Compound 1096, 1,1,1-trifluoro-2-methylpropan-2-yl((2R,6S,7R,9R,13aS,14aR,16aS,Z)-2-((5-chloro-3-(2,2-difluoroethoxyl)isoquinolin-1-yl)oxy)-14a-((cyclopropylsulfonyl)carbamoyl)-7,9-dimethyl-5,16-dioxo-1,2,3,5,6,7,8,9,10,11,13a,14,14a,15,16,16a-hexadecahydrocyclopropa[e]pyrrolo[1,2-a][1,4]diazacyclopentadecin-6-yl)carbamate], the pEC50 in experiment [1] and in experiment [2] was > 8.26 in each case.

For the compound `C[C@H]1CC/C=C\[C@@H]2C[C@@]2(C(=O)NS(=O)(=O)C2(C)CC2)NC(=O)[C@@H]2C[C@@H](Oc3nc(OCC(F)F)cc4c(Cl)cccc34)CN2C(=O)[C@@H](NC(=O)OC(C)(C)C(F)(F)F)[C@H](C)C1` [Compound 1097, 1,1,1-trifluoro-2-methylpropan-2-yl((2R,6S,7R,9S,13aS,14aR,16aS,Z)-2-((5-chloro-3-(2,2-difluoroethoxyl)isoquinolin-1-yl)oxy)-7,9-dimethyl-14a-(((1-methylcyclopropyl)sulfonyl)carbamoyl)-5,16-dioxo-1,2,3,5,6,7,8,9,10,11,13a,14,14a,15,16,16a-hexadecahydrocyclopropa[e]pyrrolo[1,2-a][1,4]diazacyclopentadecin-6-yl)carbamate], the pEC50 in experiment [1] was > 8.26; in experiment [2], 6.99 to 8.32.

Regarding `C[C@@H]1CC/C=C\[C@@H]2C[C@@]2(C(=O)NS(=O)(=O)C2(C)CC2)NC(=O)[C@@H]2C[C@@H](Oc3nc(OCC(F)F)cc4c(Cl)cccc34)CN2C(=O)[C@@H](NC(=O)OC(C)(C)C(F)(F)F)[C@H](C)C1` [Compound 1098, 1,1,1-trifluoro-2-methylpropan-2-yl((2R,6S,7R,9R,13aS,14aR,16aS,Z)-2-((5-chloro-3-(2,2-difluoroethoxyl)isoquinolin-1-yl)oxy)-7,9-dimethyl-14a-(((1-methylcyclopropyl)sulfonyl)carbamoyl)-5,16-dioxo-1,2,3,5,6,7,8,9,10,11,13a,14,14a,15,16,16a-hexadecahydrocyclopropa[e]pyrrolo[1,2-a][1,4]diazacyclopentadecin-6-yl)carbamate], the negative logarithm of the EC50 (pEC50) in experiment [1] and in experiment [2] was > 8.26 in each case.

For `C[C@H]1CC/C=C\[C@@H]2C[C@@]2(C(=O)NS(=O)(=O)C2CC2)NC(=O)[C@@H]2C[C@@H](Oc3nc(OCC(F)F)cc4c(Cl)cccc34)CN2C(=O)[C@@H](NC(=O)O[C@H](C)C(F)(F)F)[C@H](C)C1` [Compound 1099, (R)-1,1,1-trifluoropropan-2-yl ((2R,6S,7R,9S,13aS,14aR,16aS,Z)-2-((5-chloro-3-(2,2-difluoroethoxyl)isoquinolin-1-yl)oxy)-14a-((cyclopropylsulfonyl)carbamoyl)-7,9-dimethyl-5,16-dioxo-1,2,3,5,6,7,8,9,10,11,13a,14,14a,15,16,16a-hexadecahydrocyclopropa[e]pyrrolo[1,2-a][1,4]diazacyclopentadecin-6-yl)carbamate], the negative logarithm of the EC50 (pEC50) in experiment [1] and in experiment [2] was > 8.26 throughout.
